Assay results: PubChem BioAssay AID292 (DTP/NCI, 2004)
Where “and” joins values, the source holds several entries; their conditions need not be identical. Equal values may be shown once. Inconclusive results and toxic doses are left out.

Test system: B6C3F1 mice, ip Sarcoma M5076, median survival T/C
Experiment: NCI In Vivo Anticancer Drug Screen. Data for tumor model Sarcoma M5076 (intraperitoneal) in B6C3F1 mice
Settings: endpoint: median survival time, higher = longer survival
In short: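 The readout is a ratio of survival in drug-treated animals to survival in animals given vehicle alone, taken in mice bearing a transplanted tumour line.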

[1] = dose: 50.0 mg/kg/injection, schedule: Q04DX004 (ip), vehicle: saline with Tween-80
[2] = dose: 100.0 mg/kg/injection, schedule: Q04DX004 (ip), vehicle: saline with Tween-80
[3] = dose: 6.25 mg/kg/injection, schedule: Q04DX004 (ip), vehicle: saline with Tween-80
[4] = dose: 12.5 mg/kg/injection, schedule: Q04DX004 (ip), vehicle: saline with Tween-80
[5] = dose: 25.0 mg/kg/injection, schedule: Q04DX004 (ip), vehicle: saline with Tween-80
[6] = dose: 37.5 mg/kg/injection, schedule: Q04DX004 (ip), vehicle: Klucel (hydroxypropylcellulose) (HPC)
[7] = dose: 75.0 mg/kg/injection, schedule: Q04DX004 (ip), vehicle: Klucel (hydroxypropylcellulose) (HPC)
[8] = dose: 150.0 mg/kg/injection, schedule: Q04DX004 (ip), vehicle: Klucel (hydroxypropylcellulose) (HPC)
[9] = dose: 0.25 mg/kg/injection, schedule: Q04DX004 (ip), vehicle: saline
[10] = dose: 0.5 mg/kg/injection, schedule: Q04DX004 (ip), vehicle: saline
[11] = dose: 30.0 mg/kg/injection, schedule: Q04DX004 (ip), vehicle: saline
[12] = dose: 50.0 mg/kg/injection, schedule: Q04DX004 (ip), vehicle: Klucel (hydroxypropylcellulose) (HPC)
[13] = dose: 100.0 mg/kg/injection, schedule: Q04DX004 (ip), vehicle: Klucel (hydroxypropylcellulose) (HPC)
[14] = dose: 25.0 mg/kg/injection, schedule: Q04DX004 (ip), vehicle: water
[15] = dose: 50.0 mg/kg/injection, schedule: Q04DX004 (ip), vehicle: water
[16] = dose: 100.0 mg/kg/injection, schedule: Q04DX004 (ip), vehicle: water
[17] = dose: 200.0 mg/kg/injection, schedule: Q04DX004 (ip), vehicle: water
[18] = dose: 12.5 mg/kg/injection, schedule: Q04DX004 (ip), vehicle: saline
[19] = dose: 25.0 mg/kg/injection, schedule: Q04DX004 (ip), vehicle: saline
[20] = dose: 50.0 mg/kg/injection, schedule: Q04DX004 (ip), vehicle: saline
[21] = dose: 100.0 mg/kg/injection, schedule: Q04DX004 (ip), vehicle: saline
[22] = dose: 200.0 mg/kg/injection, schedule: Q04DX004 (ip), vehicle: Klucel (hydroxypropylcellulose) (HPC)
[23] = dose: 400.0 mg/kg/injection, schedule: Q04DX004 (ip), vehicle: Klucel (hydroxypropylcellulose) (HPC)
[24] = dose: 800.0 mg/kg/injection, schedule: Q04DX004 (ip), vehicle: Klucel (hydroxypropylcellulose) (HPC)
[25] = dose: 75.0 mg/kg/injection, schedule: Q04DX004 (ip), vehicle: saline
[26] = dose: 150.0 mg/kg/injection, schedule: Q04DX004 (ip), vehicle: saline
[27] = dose: 300.0 mg/kg/injection, schedule: Q04DX004 (ip), vehicle: saline

CN(C)c1cc2c(nn1)Nc1ccccc1S2
T/C [1]: 88 % of control | T/C [2]: 88 % of control | T/C (dose: 200.0 mg/kg/injection, schedule: Q04DX004 (ip), vehicle: saline with Tween-80): 97 % of control | T/C (dose: 800.0 mg/kg/injection, schedule: Q04DX004 (ip), vehicle: saline with Tween-80): 90 % of control

c1ccc2c(c1)oc1cc3c(cc12)ncc1cccn13
T/C [3]: 95 % of control | T/C [4]: 90 % of control | T/C [5]: 91 % of control

CCCCNP1(NCCCC)=NP(NCCCC)(NCCCC)=NP(NCCCC)(NCCCC)=NP(NCCCC)(NCCCC)=N1
T/C (dose: 3.13 mg/kg/injection, schedule: Q04DX004 (ip), vehicle: saline with Tween-80): 96 % of control | T/C [3]: 104 % of control | T/C [4]: 102 % of control | T/C [5]: 96 % of control | T/C [1]: 97 % of control

Cn1c2ccccc2c2oc(CO)cc(=O)c21
T/C [6]: 92 % of control | T/C [7]: 91 % of control | T/C [8]: 91 % of control | T/C (dose: 300.0 mg/kg/injection, schedule: Q04DX004 (ip), vehicle: Klucel (hydroxypropylcellulose) (HPC)): 87 % of control | T/C (dose: 600.0 mg/kg/injection, schedule: Q04DX004 (ip), vehicle: Klucel (hydroxypropylcellulose) (HPC)): 91 % of control

CO[C@@]12[C@H](COC(N)=O)C3=C(C(=O)C(C)=C(N)C3=O)N1C[C@@H]1N[C@@H]12
T/C [9]: 106 % of control | T/C [10]: 120 % of control and 121 % of control

O=S1(=O)C(c2ccccc2)=C(O)c2cc3ccccc3nc21
T/C (dose: 31.25 mg/kg/injection, schedule: Q04DX004 (ip), vehicle: saline with Tween-80): 97 % of control | T/C (dose: 62.5 mg/kg/injection, schedule: Q04DX004 (ip), vehicle: saline with Tween-80): 108 % of control | T/C (dose: 125.0 mg/kg/injection, schedule: Q04DX004 (ip), vehicle: saline with Tween-80): 93 % of control | T/C (dose: 250.0 mg/kg/injection, schedule: Q04DX004 (ip), vehicle: saline with Tween-80): 102 % of control

CN=C(N)c1ccc(N=C(N)c2ccc(C(N)=Nc3ccc(C(N)=NC)cc3)cc2)cc1
T/C (dose: 3.75 mg/kg/injection, schedule: Q01DX005 (ip), vehicle: saline): 110 % of control | T/C (dose: 7.5 mg/kg/injection, schedule: Q01DX005 (ip), vehicle: saline): 116 % of control | T/C (dose: 7.5 mg/kg/injection, schedule: Q04DX004 (ip), vehicle: saline): 88 % of control | T/C (dose: 15.0 mg/kg/injection, schedule: Q01DX005 (ip), vehicle: saline): 124 % of control | T/C (dose: 15.0 mg/kg/injection, schedule: Q04DX004 (ip), vehicle: saline): 98 % of control | T/C (dose: 18.0 mg/kg/injection, schedule: Q01DX005 (ip), vehicle: saline): 156 % of control | T/C [11]: 109 % of control

N#CC1C(=O)NC(=S)NC1c1ccco1 (stereo not drawn)
T/C [12]: 98 % of control | T/C [13]: 100 % of control

O=NNc1ccc2cccnc2n1
T/C (dose: 12.5 mg/kg/injection, schedule: Q04DX004 (ip), vehicle: water): 104 % of control | T/C [14]: 116 % of control | T/C [15]: 151 % of control | T/C [16]: 151 % of control and 161 % of control | T/C [17]: 174 % of control

[Cl][Mn][Cl]
T/C [18]: 96 % of control | T/C [19]: 100 % of control | T/C [20]: 124 % of control | T/C [21]: 111 % of control

CC(C)(C)c1cc(C2C(C#N)C(=O)NC(=O)C2C#N)cc(C(C)(C)C)c1O (stereo not drawn)
T/C [12]: 88 % of control | T/C [13]: 97 % of control | T/C [22]: 93 % of control | T/C [23]: 95 % of control | T/C [24]: 97 % of control

N#CC1C(=O)NC(=O)C(C#N)C1c1ccc(Cl)cc1Cl (stereo not drawn)
T/C [12]: 93 % of control | T/C [13]: 95 % of control | T/C [22]: 100 % of control | T/C [23]: 96 % of control

CC(=O)N1CN=C2Sc3ccccc3N2C1
T/C (dose: 18.75 mg/kg/injection, schedule: Q04DX004 (ip), vehicle: Klucel (hydroxypropylcellulose) (HPC)): 102 % of control | T/C [6]: 111 % of control | T/C [7]: 103 % of control | T/C [8]: 102 % of control

C1CCC(NC2CCCCC2)CC1
T/C [25]: 103 % of control | T/C [26]: 103 % of control | T/C [27]: 100 % of control

COc1cc(/C=C/[N+](=O)[O-])cc(Br)c1OC
T/C [4]: 95 % of control | T/C [5]: 90 % of control | T/C [1]: 94 % of control | T/C [2]: 107 % of control

O=C(NCc1ccccc1)C1C(=O)C(=O)N(Cc2ccccc2)C1=O (stereo not drawn)
T/C [12]: 92 % of control | T/C [13]: 102 % of control | T/C [22]: 100 % of control | T/C [23]: 100 % of control | T/C [24]: 96 % of control

O=C1NC(=O)C23CCCCc4cccc(c42)C(=O)C13 (stereo not drawn)
T/C [14]: 103 % of control | T/C [15]: 103 % of control | T/C [16]: 107 % of control | T/C [17]: 103 % of control | T/C (dose: 400.0 mg/kg/injection, schedule: Q04DX004 (ip), vehicle: water): 106 % of control

[CH3][Sn]([CH3])([Cl])[c]1cc[c]([Sn]([CH3])([CH3])[Cl])cc1
T/C [9]: 108 % of control | T/C [10]: 105 % of control | T/C (dose: 1.0 mg/kg/injection, schedule: Q04DX004 (ip), vehicle: saline): 87 % of control | T/C (dose: 2.0 mg/kg/injection, schedule: Q04DX004 (ip), vehicle: saline): 91 % of control

O=C[C@@H](CO)O[C@H](C=O)c1c[nH]c(=O)[nH]c1=O
T/C [18]: 111 % of control and 121 % of control | T/C (dose: 18.0 mg/kg/injection, schedule: Q04DX004 (ip), vehicle: saline): 110 % of control | T/C [19]: 114 % of control and 123 % of control | T/C [11]: 118 % of control | T/C [20]: 123 % of control | T/C [21]: 165 % of control | T/C (dose: 138.8 mg/kg/injection, schedule: Q04DX004 (ip), vehicle: saline): 153 % of control

CCOP(=S)(OCC)OC(=O)C(C)SSC (stereo not drawn) (tested in a mixture with another compound)
T/C (dose: 37.5 mg/kg/injection, schedule: Q04DX004 (ip), vehicle: saline with Tween-80): 96 % of control | T/C (dose: 75.0 mg/kg/injection, schedule: Q04DX004 (ip), vehicle: saline with Tween-80): 99 % of control | T/C (dose: 150.0 mg/kg/injection, schedule: Q04DX004 (ip), vehicle: saline with Tween-80): 88 % of control

CCN(CC)CCN1C(=O)C2C3C=CC(C2C1=O)C1C2C(=O)N(CCN(CC)CC)C(=O)C2C31 (stereo not drawn)
T/C [14]: 95 % of control | T/C [15]: 99 % of control | T/C [16]: 97 % of control | T/C [17]: 99 % of control

COc1cc2c(c3c1c(=O)c1ccccc1n3C)C=C([N+](=O)[O-])C(C)(C)O2
T/C (dose: 25.0 mg/kg/injection, schedule: Q04DX004 (ip), vehicle: saline + Tween-80 + alcohol): 104 % of control | T/C (dose: 50.0 mg/kg/injection, schedule: Q04DX004 (ip), vehicle: saline + Tween-80 + alcohol): 90 % of control

OCC(O)C(O)C(O)C(O)CO (stereo not drawn)
T/C [25]: 96 % of control and 102 % of control | T/C [26]: 111 % of control | T/C [27]: 96 % of control and 100 % of control | T/C (dose: 600.0 mg/kg/injection, schedule: Q04DX004 (ip), vehicle: saline): 92 % of control and 101 % of control | T/C (dose: 1200.0 mg/kg/injection, schedule: Q04DX004 (ip), vehicle: saline): 101 % of control and 106 % of control

COc1ccc2c(c1)n([O-])c1ccccc1[n+]2=O
T/C [5]: 115 % of control | T/C [1]: 117 % of control | T/C [2]: 121 % of control

COc1cc(NCc2ccc3nc(N)nc(N)c3c2C)cc(OC)c1OC (tested in a mixture with another compound)
T/C (dose: 10.0 mg/kg/injection, schedule: Q04DX004 (ip), vehicle: water): 108 % of control | T/C (dose: 20.0 mg/kg/injection, schedule: Q04DX004 (ip), vehicle: water): 112 % of control | T/C (dose: 40.0 mg/kg/injection, schedule: Q04DX004 (ip), vehicle: water): 117 % of control | T/C (dose: 80.0 mg/kg/injection, schedule: Q04DX004 (ip), vehicle: water): 115 % of control
